Results taken from patent US10479780B2, “Aminopyrazole derivatives” (Chugai Seiyaku Kabushiki Kaisha, priority 2015, dated 2019).

Experiments:
Type in all cases: biochemical
[1] = target: T1, human Yes1 enzyme (Homo sapiens, UniProt P07947); experiment: Yes1 enzyme inhibitory activity (time-resolved fluorometry, biotinylated peptide phosphorylation); settings: biotinylated peptide phosphorylation, read-out: YES_IC50
T1 construct: made in house
Method in brief: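 Inhibition was expressed against a compound-free control to give IC50, using TR-FRET read-out (Eu-cryptate anti-pTyr antibody, streptavidin-XL665).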

[2] = target: T2, human Src enzyme (Homo sapiens, UniProt P12931); experiment: Src enzyme inhibitory activity (time-resolved fluorometry, biotinylated peptide phosphorylation); settings: biotinylated peptide phosphorylation, read-out: SRC_IC50
T2 construct: purchased Carna Biosciences, Inc. 08-173
Method in brief: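 Compounds were tested for blocking tyrosine phosphorylation of a biotinylated peptide substrate by recombinant human Src. Phosphorylated product was quantified by time-resolved fluorometry using europium cryptate and XL665 conjugates, and IC50 was calculated against the compound-free control.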

[3] = target: T3, human Lck enzyme (Homo sapiens, UniProt P06239); experiment: Lck enzyme inhibitory activity (time-resolved fluorometry, biotinylated peptide phosphorylation); settings: biotinylated peptide phosphorylation, read-out: LCK_IC50
T3 construct: purchased Carna Biosciences, Inc. 08-170
Method in brief: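 Readout pairs a europium cryptate-labelled anti-phosphotyrosine antibody with XL665-streptavidin, measured by time-resolved fluorescence. IC50 derived from percent inhibition against untreated controls.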

T1 sequence (P07947 whole entry): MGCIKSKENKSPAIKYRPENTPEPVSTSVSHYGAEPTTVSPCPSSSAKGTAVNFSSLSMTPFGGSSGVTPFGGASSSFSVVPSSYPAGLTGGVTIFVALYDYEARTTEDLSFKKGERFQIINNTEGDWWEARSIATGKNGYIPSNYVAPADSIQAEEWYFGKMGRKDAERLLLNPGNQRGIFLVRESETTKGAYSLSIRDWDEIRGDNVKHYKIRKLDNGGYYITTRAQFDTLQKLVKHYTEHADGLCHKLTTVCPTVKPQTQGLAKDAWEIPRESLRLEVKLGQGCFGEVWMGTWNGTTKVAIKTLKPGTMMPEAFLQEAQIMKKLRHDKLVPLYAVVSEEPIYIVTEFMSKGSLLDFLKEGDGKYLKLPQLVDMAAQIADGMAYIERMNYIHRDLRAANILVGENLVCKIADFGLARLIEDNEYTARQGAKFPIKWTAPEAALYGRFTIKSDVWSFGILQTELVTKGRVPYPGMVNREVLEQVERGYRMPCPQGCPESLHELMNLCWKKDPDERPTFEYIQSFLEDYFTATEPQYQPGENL
T3 sequence (P06239 whole entry): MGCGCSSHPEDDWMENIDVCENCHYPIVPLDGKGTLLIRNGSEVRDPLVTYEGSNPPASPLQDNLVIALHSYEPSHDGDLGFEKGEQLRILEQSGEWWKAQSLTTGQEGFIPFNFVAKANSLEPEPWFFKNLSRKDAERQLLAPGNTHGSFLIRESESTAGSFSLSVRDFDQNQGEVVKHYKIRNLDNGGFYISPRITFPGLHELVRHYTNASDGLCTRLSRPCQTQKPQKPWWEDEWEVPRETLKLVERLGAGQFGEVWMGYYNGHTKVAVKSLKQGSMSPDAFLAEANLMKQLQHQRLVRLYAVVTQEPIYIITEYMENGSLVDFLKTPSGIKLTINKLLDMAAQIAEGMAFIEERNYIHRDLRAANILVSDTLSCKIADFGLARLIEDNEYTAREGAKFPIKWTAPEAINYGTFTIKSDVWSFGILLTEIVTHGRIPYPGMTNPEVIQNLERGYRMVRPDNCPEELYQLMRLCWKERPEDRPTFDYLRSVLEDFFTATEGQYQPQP
T2 sequence (P12931 whole entry): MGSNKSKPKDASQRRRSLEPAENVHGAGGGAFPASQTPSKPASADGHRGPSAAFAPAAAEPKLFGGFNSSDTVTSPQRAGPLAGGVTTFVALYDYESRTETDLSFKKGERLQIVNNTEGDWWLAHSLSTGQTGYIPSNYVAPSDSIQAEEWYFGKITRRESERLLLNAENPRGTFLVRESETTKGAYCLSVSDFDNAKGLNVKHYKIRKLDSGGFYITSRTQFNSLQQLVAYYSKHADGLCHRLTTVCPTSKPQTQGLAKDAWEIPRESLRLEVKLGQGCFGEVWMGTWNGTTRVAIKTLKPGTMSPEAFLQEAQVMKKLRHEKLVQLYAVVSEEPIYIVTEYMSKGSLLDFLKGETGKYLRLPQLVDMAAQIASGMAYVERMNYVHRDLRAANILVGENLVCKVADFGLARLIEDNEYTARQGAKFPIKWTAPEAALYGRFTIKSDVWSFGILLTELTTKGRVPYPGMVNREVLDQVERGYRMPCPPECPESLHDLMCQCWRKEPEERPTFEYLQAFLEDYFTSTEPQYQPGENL

| SMILES | IC50 [1] [nM] | IC50 [2] [nM] | IC50 [3] [nM] |
| --- | --- | --- | --- |
| Cc1cc(Oc2c(F)cccc2F)ncc1-n1ncc(C(=O)c2cc3cc(F)c(N4C(=O)CNC4=O)cc3[nH]2)c1N [Example 5-1-405, 3-[2-[5-amino-1-[6-(2,6-difluorophenoxy)-4-methylpyridin-3-yl]pyrazole-4-carbonyl]-5-fluoro-1H-indol-6-yl]imidazolidine-2,4-dione] | 2.7 | 66 | 3.2 |
| Cc1cc(Oc2c(F)cccc2F)ncc1-n1ncc(C(=O)c2cc3cc(F)c(N4C(=O)N[C@@H](C)C4=O)cc3[nH]2)c1N [Example 5-1-406, (5S)-3-[2-[5-amino-1-[6-(2,6-difluorophenoxy)-4-methylpyridin-3-yl]pyrazole-4-carbonyl]-5-fluoro-1H-indol-6-yl]-5-methylimidazolidine-2,4-dione] | 2.2 | 75 | 3.1 |
| Cc1cc(Oc2c(F)cccc2F)ncc1-n1ncc(C(=O)c2cc3cc(F)c(N4C(=O)N[C@@H](CO)C4=O)cc3[nH]2)c1N [Example 5-1-407, (5S)-3-[2-[5-amino-1-[6-(2,6-difluorophenoxy)-4-methylpyridin-3-yl]pyrazole-4-carbonyl]-5-fluoro-1H-indol-6-yl]-5-(hydroxymethyl) imidazolidine-2,4-dione] | 2.2 | 74 | 3.5 |
| Cc1cc2cc(C(=O)c3cnn(-c4ccc(Oc5ccccc5F)cc4C)c3N)[nH]c2cc1N1C(=O)NC2(CCOCC2)C1=O [Example 5-1-408, 3-[2-[5-amino-1-[4-(2-fluorophenoxy)-2-methylphenyl]pyrazole-4-carbonyl]-5-methyl-1H-indol-6-yl]-8-oxa-1,3-diazaspiro[4.5] decane-2,4-dione] | 1.2 | 43 | 6.1 |
| Cc1cc2cc(C(=O)c3cnn(-c4ccc(Oc5ccccc5F)cc4C)c3N)[nH]c2cc1N1C(=O)NC2(CCCCC2)C1=O [Example 5-1-409, 3-[2-[5-amino-1-[4-(2-fluorophenoxy)-2-methylphenyl]pyrazole-4-carbonyl]-5-methyl-1H-indol-6-yl]-1,3-diazaspiro[4.5]decane-2,4-dione] | 3.1 | 160 | 20 |
| Cc1cc2cc(C(=O)c3cnn(-c4ccc(Oc5ccccc5F)cc4C)c3N)[nH]c2cc1N1C(=O)NC2(COC2)C1=O [Example 5-1-410, 7-[2-[5-amino-1-[4-(2-fluorophenoxy)-2-methylphenyl]pyrazole-4-carbonyl]-5-methyl-1H-indol-6-yl]-2-oxa-5,7-diazaspiro[3.4] octane-6,8-dione] | 0.56 | 22 | 2.9 |
| Cc1cc(Oc2ccccc2F)ccc1-n1ncc(C(=O)c2cc3cc(F)c(N4C(=O)N[C@@H](C)C4=O)cc3[nH]2)c1N [Example 5-1-411, (5S)-3-[2-[5-amino-1-[4-(2-fluorophenoxy)-2-methylphenyl]pyrazole-4-carbonyl]-5-fluoro-1H-indol-6-yl]-5-methylimidazolidine-2,4-dione] | 0.73 | 37 | 4.2 |
| Cc1cc(Oc2ccccc2F)ccc1-n1ncc(C(=O)c2cc3cc(F)c(N4C(=O)NC(C)(C(F)(F)F)C4=O)cc3[nH]2)c1N (stereo not drawn) [Example 5-1-412, 3-[2-[5-amino-1-[4-(2-fluorophenoxy)-2-methylphenyl]pyrazole-4-carbonyl]-5-fluoro-1H-indol-6-yl]-5-methyl-5-(trifluoromethyl) imidazolidine-2,4-dione] | 3 | 100 | 17 |
| Cc1cc(Oc2ccccc2F)ncc1-n1ncc(C(=O)c2cc3cc(F)c(N4CC5(CCOCC5)NS4(=O)=O)cc3[nH]2)c1N [Example 5-1-413, [5-amino-1-[6-(2-fluorophenoxy)-4-methylpyridin-3-yl]pyrazol-4-yl]-[6-(2,2-dioxo-8-oxa-2λ6-thia-1,3-diazaspiro[4.5]decan-3-yl)-5-fluoro-1H-indol-2-yl]methanone] | 1.5 | 90 | 17 |
| COc1cccc(S(=O)(=O)Nc2cc3[nH]c(C(=O)c4cnn(-c5ccc(Oc6ccccc6F)cc5C)c4N)cc3cc2OCC(F)F)c1 [Example 5-1-414, N-[2-[5-amino-1-[4-(2-fluorophenoxy)-2-methylphenyl]pyrazole-4-carbonyl]-5-(2,2-difluoroethoxy)-1H-indol-6-yl]-3-methoxybenzenesulfonamide] | 5.3 | 330 | 110 |
| Cc1cc(Oc2ccccc2F)ccc1-n1ncc(C(=O)c2cc3cc(OCC(F)F)c(NS(=O)(=O)c4cc(F)cc(F)c4)cc3[nH]2)c1N [Example 5-1-415, N-[2-[5-amino-1-[4-(2-fluorophenoxy)-2-methylphenyl]pyrazole-4-carbonyl]-5-(2,2-difluoroethoxy)-1H-indol-6-yl]-3,5-difluorobenzenesulfonamide] | 5.9 | 280 | 110 |
| Cc1cc(Oc2ccccc2F)ccc1-n1ncc(C(=O)c2cc3cc(OCC(F)F)c(NS(=O)(=O)c4cccc(C#N)c4)cc3[nH]2)c1N [Example 5-1-416, N-[2-[5-amino-1-[4-(2-fluorophenoxy)-2-methylphenyl]pyrazole-4-carbonyl]-5-(2,2-difluoroethoxy)-1H-indol-6-yl]-3-cyanobenzenesulfonamide] | 3.4 | 210 | 58 |
| Cc1cc(Oc2ccccc2F)ccc1-n1ncc(C(=O)c2cc3cc(OCC(F)F)c(NS(=O)(=O)c4cccc(Cl)c4)cc3[nH]2)c1N [Example 5-1-417, N-[2-[5-amino-1-[4-(2-fluorophenoxy)-2-methylphenyl]pyrazole-4-carbonyl]-5-(2,2-difluoroethoxy)-1H-indol-6-yl]-3-chlorobenzenesulfonamide] | 5.8 | 240 | 130 |
| Cc1cc(Oc2ccccc2F)ccc1-n1ncc(C(=O)c2cc3cc(OCC(F)F)c(NS(=O)(=O)c4cccnc4)cc3[nH]2)c1N [Example 5-1-418, N-[2-[5-amino-1-[4-(2-fluorophenoxy)-2-methylphenyl]pyrazole-4-carbonyl]-5-(2,2-difluoroethoxy)-1H-indol-6-yl]pyridine-3-sulfonamide] | 1.4 | 78 | 21 |
| COc1cccc(S(=O)(=O)Nc2cc3[nH]c(C(=O)c4cnn(-c5cnc(Oc6ccccc6F)cc5C)c4N)cc3cc2OCC(F)F)c1 [Example 5-1-419, N-[2-[5-amino-1-[6-(2-fluorophenoxy)-4-methylpyridin-3-yl]pyrazole-4-carbonyl]-5-(2,2-difluoroethoxy)-1H-indol-6-yl]-3-methoxybenzenesulfonamide] | 5.6 | 790 | 220 |
| Cc1cc(Oc2ccccc2F)ncc1-n1ncc(C(=O)c2cc3cc(OCC(F)F)c(NS(=O)(=O)c4cc(F)cc(F)c4)cc3[nH]2)c1N [Example 5-1-420, N-[2-[5-amino-1-[6-(2-fluorophenoxy)-4-methylpyridin-3-yl]pyrazole-4-carbonyl]-5-(2,2-difluoroethoxy)-1H-indol-6-yl]-3,5-difluorobenzenesulfonamide] | 6.3 | 600 | 160 |
| Cc1cc(Oc2ccccc2F)ncc1-n1ncc(C(=O)c2cc3cc(F)c(N4CC(C)(C)NS4(=O)=O)cc3[nH]2)c1N [Example 5-1-421, [5-amino-1-[6-(2-fluorophenoxy)-4-methylpyridin-3-yl]pyrazol-4-yl]-[6-(4,4-dimethyl-1,1-dioxo-1,2,5-thiadiazolidin-2-yl)-5-fluoro-1H-indol-2-yl]methanone] | 1.1 | 84 | 17 |
| Cc1cc(Oc2ccccc2F)ncc1-n1ncc(C(=O)c2cc3cc(OCC(F)F)c(NS(=O)(=O)c4cccc(C#N)c4)cc3[nH]2)c1N [Example 5-1-422, N-[2-[5-amino-1-[6-(2-fluoropheooxy)-4-methylpyridin-3-yl]pyrazole-4-carbonyl]-5-(2,2-difluoroethoxy)-1H-indol-6-yl]-3-cyanobenzenesulfonamide] | 1.7 | 250 | 91 |
| Cc1cc(Oc2ccccc2F)ccc1-n1ncc(C(=O)c2cc3cc(OC(F)F)c(N4CC5(CCCC5)NS4(=O)=O)cc3[nH]2)c1N [Example 5-1-423, [5-amino-1-[4-(2-fluorophenoxy)-2-methylphenyl]pyrazol-4-yl]-[5-(difluoromethoxy)-6-(2,2-dioxo-2λ6-thia-1,3-diazaspiro[4.4]nonan-3-yl)-1H-indol-2-yl]methanone] | 4 | 190 | 61 |
| Cc1cc(Oc2ccccc2F)ncc1-n1ncc(C(=O)c2cc3cc(OCC(F)F)c(NS(=O)(=O)c4cccc(Cl)c4)cc3[nH]2)c1N [Example 5-1-424, N-[2-[5-amino-1-[6-(2-fluorophenoxy)-4-methylpyridin-3-yl]pyrazole-4-carbonyl]-5-(2,2-difluoroethoxy)-1H-indol-6-yl]-3-chlorobenzenesulfonamide] | 5.6 | 480 | 200 |
| Cc1cc(Oc2ccccc2F)ncc1-n1ncc(C(=O)c2cc3cc(OCC(F)F)c(NS(=O)(=O)c4cccnc4)cc3[nH]2)c1N [Example 5-1-425, N-[2-[5-amino-1-[6-(2-fluorophenoxy)-4-methylpyridin-3-yl]pyrazole-4-carbonyl]-5-(2,2-difluoroethoxy)-1H-indol-6-yl]pyridine-3-sulfonamide] | 1.5 | 95 | 39 |
